According to patent US20100298141A1, “SUBSTITUTED PYRIDINE N-OXIDE HERBICIDES” (E. I. DU PONT DE NEMOURS AND COMPANY, priority 2007, published 2010):

Columns and labels:
[1] = tested on: lambsquarters; test: Test C pre-/postemergence test; assay type: in vivo, Chenopodium album; details: Postemergence; for Plant response rating, Lambsquarters: scale 0 to 100, 0 no effect, 100 complete control
Excerpt: (§1) Seeds of plant species selected from blackgrass (Alopecurus myosuroides), downy brome (Bromus tectorum), green foxtail (Setaria viridis), Italian ryegrass (Lolium multiflorum), wheat (Triticum aestivum), wild oat (Avena fatua), catchweed bedstraw (Galium aparine), Russian thistle (Salsola kali), […] (Cynodon dactylon), Surinam grass (Brachiaria decumbens), cocklebur (Xanthium strumarium), corn (Zea mays), crabgrass (Digitaria sanguinalis), woolly cupgrass (Eriochloa villosa), giant foxtail (Setaria faberii), Goosegrass (Eleusin indica), johnsongrass (Sorghum halepense), kochia (Kochia scoparia), lambsquarters (Chenopodium album), morningglory (Ipomoea coccinea), eastern black nightshade (Solanum ptycanthum), yellow nutsedge (Cyperus esculentus), pigweed (Amaranthus retroflexus), common ragweed (Ambrosia elation), soybean (Glycine max), common (oilseed) sunflower (Helianthus annuus), and velvetleaf (Abutilon theophrasti) were planted and treated preemergence with test chemicals formulated in a non-phytotoxic solvent mixture which included a surfactant. At the same time, plants selected from these crop and weed species and also winter barley (Hordeum vulgare), canarygrass (Phalaris minor), and chickweed (Stellaria media) were treated with postemergence applications of some of the test chemicals formulated in the same manner. Plants ranged in height from 2 to 18 cm (1- to 4-leaf stage) for postemergence treatments. […] At time of treatment, test pots were flooded to 3 cm above the soil surface, treated by application of test compounds directly to the paddy water, and then maintained at that water depth for the duration of the test. […] A dash (-) response means no test result.

[2] = tested on: blackgrass; test: Test C pre-/postemergence test; assay type: in vivo, Alopecurus myosuroides; details: Postemergence; for Plant response rating, Blackgrass: scale 0 to 100, 0 no effect, 100 complete control
Excerpt: as §1

[3] = tested on: kochia; test: Test C pre-/postemergence test; assay type: in vivo, Kochia scoparia; details: Postemergence; for Plant response rating, Kochia: scale 0 to 100, 0 no effect, 100 complete control
Excerpt: as §1

[4] = tested on: common ragweed; test: Test C pre-/postemergence test; assay type: in vivo, Ambrosia elation; details: Postemergence; for Plant response rating, Ragweed: scale 0 to 100, 0 no effect, 100 complete control
Excerpt: as §1

[5] = tested on: wheat; test: Test C pre-/postemergence test; assay type: in vivo, Triticum aestivum; details: Postemergence; for Plant response rating, Wheat: scale 0 to 100, 0 no effect, 100 complete control
Excerpt: as §1

[6] = tested on: woolly cupgrass; test: Test C pre-/postemergence test; assay type: in vivo, Eriochloa villosa; details: Postemergence; for Plant response rating, Cupgrass, Woolly: scale 0 to 100, 0 no effect, 100 complete control
Excerpt: as §1

[7] = tested on: Surinam grass; test: Test C pre-/postemergence test; assay type: in vivo, Brachiaria decumbens; details: Postemergence; for Plant response rating, Surinam Grass: scale 0 to 100, 0 no effect, 100 complete control
Excerpt: as §1

[8] = tested on: cocklebur; test: Test C pre-/postemergence test; assay type: in vivo, Xanthium strumarium; details: Postemergence; for Plant response rating, Cocklebur: scale 0 to 100, 0 no effect, 100 complete control
Excerpt: as §1

[9] = tested on: redroot pigweed; test: Test A pre-/postemergence greenhouse test; assay type: in vivo, Amaranthus retroflexus; details: for Plant response rating, Pigweed: 0 to 100 scale where 0 is no effect and 100 is complete control; for Pigweed plant response rating: 0 to 100 scale
Summary of the method: (§2)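 Sowing in loam/sand; same-day pre (directed soil spray) and post (foliar, 1–2 leaf, 2–10 cm) treatment with surfactant-containing non-phytotoxic solvent formulation; ~10 days in greenhouse; eye-scored injury against untreated plants.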

[10] = tested on: velvetleaf; test: Test C pre-/postemergence test; assay type: in vivo, Abutilon theophrasti; details: Postemergence; for Plant response rating, Velvetleaf: scale 0 to 100, 0 no effect, 100 complete control
Excerpt: as §1

[11] = tested on: downy brome; test: Test C pre-/postemergence test; assay type: in vivo, Bromus tectorum; details: Postemergence; for Plant response rating, Bromegrass, Downy: scale 0 to 100, 0 no effect, 100 complete control
Excerpt: as §1

[12] = tested on: giant foxtail; test: Test C pre-/postemergence test; assay type: in vivo, Setaria faberii; details: Postemergence; for Plant response rating, Foxtail, Giant: scale 0 to 100, 0 no effect, 100 complete control
Excerpt: as §1

[13] = tested on: giant foxtail; test: Test A pre-/postemergence greenhouse test; assay type: in vivo, Setaria faberi; details: for Plant response rating, Foxtail, Giant: 0 to 100 scale where 0 is no effect and 100 is complete control; for Foxtail, Giant plant response rating: 0 to 100 scale
Summary of the method: as §2

[14] = tested on: morningglory; test: Test A pre-/postemergence greenhouse test; assay type: in vivo, Ipomoea spp.; details: for Plant response rating, Morningglory: 0 to 100 scale where 0 is no effect and 100 is complete control; for Morningglory plant response rating: 0 to 100 scale
Summary of the method: as §2

[15] = tested on: wheat; test: Test A pre-/postemergence greenhouse test; assay type: in vivo, Triticum aestivum; details: for Plant response rating, Wheat: 0 to 100 scale where 0 is no effect and 100 is complete control; for Wheat plant response rating: 0 to 100 scale
Summary of the method: as §2

[16] = tested on: wild oat; test: Test C pre-/postemergence test; assay type: in vivo, Avena fatua; details: Postemergence; for Plant response rating, Oat, Wild: scale 0 to 100, 0 no effect, 100 complete control
Excerpt: as §1

[17] = Postemergence, 500 g ai/ha, 0 is no effect, 100 is complete control
[18] = Preemergence, 125 g ai/ha, 0 no effect, 100 complete control

CCn1nc(C(F)(F)F)c(C(C)S(=O)(=O)c2cccc[n+]2[O-])c1OCC(F)(F)F (stereo not shown) [Compound 69]
Plant response rating (0 to 100), Lambsquarters ([1]; 31 g ai/ha): 0
Plant response rating, Lambsquarters ([1]; 62 g ai/ha): 0
Plant response rating, Lambsquarters ([1]; 125 g ai/ha): 0
Plant response rating, Lambsquarters ([1]; 250 g ai/ha): 0
Plant response rating (0 to 100), Blackgrass ([2]; 31 g ai/ha): 0
Plant response rating, Blackgrass ([2]; 62 g ai/ha): 0
Plant response rating, Blackgrass ([2]; 125 g ai/ha): 85
Plant response rating, Blackgrass ([2]; 250 g ai/ha): 95
Plant response rating (0 to 100), Kochia ([3]; 31 g ai/ha): 0
Plant response rating, Kochia ([3]; 62 g ai/ha): 0
Plant response rating, Kochia ([3]; 125 g ai/ha): 0
Plant response rating, Kochia ([3]; 250 g ai/ha): 0
Plant response rating (0 to 100), Ragweed ([4]; 31 g ai/ha): 0
Plant response rating (0 to 100), Ragweed ([4]; 62 g ai/ha): 0
Plant response rating, Ragweed ([4]; 125 g ai/ha): 0
Plant response rating, Ragweed ([4]; 250 g ai/ha): 0
Plant response rating (0 to 100), Wheat ([5]; 31 g ai/ha): 0
Plant response rating (0 to 100), Wheat ([5]; 62 g ai/ha): 0
Plant response rating, Wheat ([5]; 125 g ai/ha): 20
Plant response rating, Wheat ([5]; 250 g ai/ha): 50
Plant response rating (0 to 100), Cupgrass, Woolly ([6]; 31 g ai/ha): 0
Plant response rating, Cupgrass, Woolly ([6]; 62 g ai/ha): 0
Plant response rating, Cupgrass, Woolly ([6]; 125 g ai/ha): 0
Plant response rating, Cupgrass, Woolly ([6]; 250 g ai/ha): 0
Plant response rating (0 to 100), Surinam Grass ([7]; 31 g ai/ha): 0
Plant response rating (0 to 100), Surinam Grass ([7]; 62 g ai/ha): 0
Plant response rating, Surinam Grass ([7]; 125 g ai/ha): 0
Plant response rating, Surinam Grass ([7]; 250 g ai/ha): 0
Plant response rating (0 to 100), Cocklebur ([8]; 31 g ai/ha): 0
Plant response rating, Cocklebur ([8]; 62 g ai/ha): 0
Plant response rating, Cocklebur ([8]; 125 g ai/ha): 0
Plant response rating, Cocklebur ([8]; 250 g ai/ha): 0
Plant response rating, Pigweed ([9]; Postemergence, 125 g ai/ha): 30
Pigweed plant response rating [9, 17]: 90
Pigweed plant response rating [9, 18]: 70
Plant response rating, Pigweed ([9]; Preemergence, 500 g ai/ha): 100
Plant response rating (0 to 100), Velvetleaf ([10]; 31 g ai/ha): 0
Plant response rating (0 to 100), Velvetleaf ([10]; 62 g ai/ha): 0
Plant response rating, Velvetleaf ([10]; 125 g ai/ha): 0
Plant response rating, Velvetleaf ([10]; 250 g ai/ha): 0
Plant response rating (0 to 100), Bromegrass, Downy ([11]; 31 g ai/ha): 0
Plant response rating, Bromegrass, Downy ([11]; 62 g ai/ha): 0
Plant response rating, Bromegrass, Downy ([11]; 125 g ai/ha): 10
Plant response rating, Bromegrass, Downy ([11]; 250 g ai/ha): 45
Plant response rating (0 to 100), Foxtail, Giant ([12]; 31 g ai/ha): 0
Plant response rating, Foxtail, Giant ([12]; 62 g ai/ha): 0
Plant response rating, Foxtail, Giant ([12]; 125 g ai/ha): 0
Plant response rating, Foxtail, Giant ([12]; 250 g ai/ha): 60
Plant response rating, Foxtail, Giant ([13]; Postemergence, 125 g ai/ha): 80
Foxtail, Giant plant response rating [13, 17]: 100
Foxtail, Giant plant response rating [13, 18]: 100
Plant response rating, Foxtail, Giant ([13]; Preemergence, 500 g ai/ha): 100
Plant response rating, Morningglory ([14]; Postemergence, 125 g ai/ha): 40
Morningglory plant response rating [14, 17]: 70
Morningglory plant response rating [14, 18]: 50
Plant response rating, Morningglory ([14]; Preemergence, 500 g ai/ha): 100
Plant response rating, Wheat ([15]; Postemergence, 125 g ai/ha): 50
Wheat plant response rating [15, 17]: 60
Wheat plant response rating [15, 18]: 50
Plant response rating, Wheat ([15]; Preemergence, 500 g ai/ha): 90
Plant response rating (0 to 100), Oat, Wild ([16]; 31 g ai/ha): 0
Plant response rating, Oat, Wild ([16]; 62 g ai/ha): 0
Plant response rating, Oat, Wild ([16]; 125 g ai/ha): 0
Plant response rating, Oat, Wild ([16]; 250 g ai/ha): 90
